system: SN12C; assay: NCI60 five-dose screen, Renal Cancer; assay type: cell-based; conditions: Homo sapiens, Renal Cancer, five-dose screen, read-out: GI50

Q: `CCC12C=CCN3CCC4(c5cc(NC(=O)CN6CCN(C(c7ccc(F)cc7)c7ccc(F)cc7)CC6)c(OC)cc5N(C)C4C(O)(C(=O)OC)C1OC(C)=O)C32` (stereo not shown) [Compound 20] was tested. Which GI50 did it give?
A: The GI50 was 4.9 µM.

system: DU-145; assay: NCI60 five-dose screen, Prostate Cancer; assay type: cell-based; conditions: Homo sapiens; DU-145, Prostate Cancer; five-dose screen; read-out: GI50

Q: Which GI50 does the source give for `CCC12C=CCN3CCC4(c5cc(NC(=O)CN6CCN(C(c7ccc(F)cc7)c7ccc(F)cc7)CC6)c(OC)cc5N(C)C4C(O)(C(=O)OC)C1OC(C)=O)C32` (stereo not shown) [Compound 20] here?
A: Its GI50 is 6.31 µM.

system: SK-OV-3; assay: NCI60 five-dose screen, Ovarian Cancer; assay type: cell-based; conditions: Homo sapiens; SK-OV-3, Ovarian Cancer; five-dose screen; read-out: GI50

Q: Which GI50 does the source give for `CCC12C=CCN3CCC4(c5cc(NC(=O)CN6CCN(C(c7ccc(F)cc7)c7ccc(F)cc7)CC6)c(OC)cc5N(C)C4C(O)(C(=O)OC)C1OC(C)=O)C32` (stereo not shown) [Compound 20] here?
A: The GI50 was 5.89 µM.

system: UACC-62; assay: NCI60 five-dose screen, Melanoma; assay type: cell-based; conditions: Homo sapiens; UACC-62, Melanoma; five-dose screen; read-out: GI50

Q: With `CCC12C=CCN3CCC4(c5cc(NC(=O)CN6CCN(C(c7ccc(F)cc7)c7ccc(F)cc7)CC6)c(OC)cc5N(C)C4C(O)(C(=O)OC)C1OC(C)=O)C32` (stereo not shown) [Compound 20] as the compound, how does the GI50 read?
A: The GI50 was 8.13 µM.

system: UO-31; assay: NCI60 five-dose screen, Renal Cancer; assay type: cell-based; conditions: Homo sapiens; UO-31, Renal Cancer; five-dose screen; read-out: GI50

Q: `CCC12C=CCN3CCC4(c5cc(NC(=O)CN6CCN(C(c7ccc(F)cc7)c7ccc(F)cc7)CC6)c(OC)cc5N(C)C4C(O)(C(=O)OC)C1OC(C)=O)C32` (stereo not shown) [Compound 20] was tested. Which GI50 did it give?
A: The GI50 was 5.25 µM.

system: NCI-H23; assay: NCI60 five-dose screen, Non-small Cell Lung Cancer; assay type: cell-based; conditions: Homo sapiens; NCI-H23, Non-small Cell Lung Cancer; five-dose screen; read-out: GI50

Q: For `CCC12C=CCN3CCC4(c5cc(NC(=O)CN6CCN(C(c7ccc(F)cc7)c7ccc(F)cc7)CC6)c(OC)cc5N(C)C4C(O)(C(=O)OC)C1OC(C)=O)C32` (stereo not shown) [Compound 20], which GI50 is on record?
A: Its GI50 is 6.76 µM.

system: MALME-3M; assay: NCI60 five-dose screen, Melanoma; assay type: cell-based; conditions: Homo sapiens; MALME-3M, Melanoma; five-dose screen; read-out: GI50

Q: For `CCC12C=CCN3CCC4(c5cc(NC(=O)CN6CCN(C(c7ccc(F)cc7)c7ccc(F)cc7)CC6)c(OC)cc5N(C)C4C(O)(C(=O)OC)C1OC(C)=O)C32` (stereo not shown) [Compound 20], which GI50 is on record?
A: The GI50 was 8.13 µM.

system: SF-295; assay: NCI60 five-dose screen, CNS Cancer; assay type: cell-based; conditions: Homo sapiens; SF-295, CNS Cancer; five-dose screen; read-out: GI50

Q: For `CCC12C=CCN3CCC4(c5cc(NC(=O)CN6CCN(C(c7ccc(F)cc7)c7ccc(F)cc7)CC6)c(OC)cc5N(C)C4C(O)(C(=O)OC)C1OC(C)=O)C32` (stereo not shown) [Compound 20], which GI50 is on record?
A: The GI50 was 3.47 µM.

system: 60 human tumor cell lines (NCI60); assay: NCI60 five-dose screen, whole panel and sub-panel means; assay type: cell-based; conditions: Homo sapiens, 60 cell, mean over all 60 cell lines; read-out: GI50 Mean

Q: Which GI50 does the source give for `CCC12C=CCN3CCC4(c5cc(NC(=O)CN6CCN(C(c7ccc(F)cc7)c7ccc(F)cc7)CC6)c(OC)cc5N(C)C4C(O)(C(=O)OC)C1OC(C)=O)C32` (stereo not shown) [Compound 20] here?
A: Its GI50 is 6.27 µM.

same assay, conditions: Homo sapiens, mean over Breast Cancer panel; read-out: GI50 Mean

Q: `CCC12C=CCN3CCC4(c5cc(NC(=O)CN6CCN(C(c7ccc(F)cc7)c7ccc(F)cc7)CC6)c(OC)cc5N(C)C4C(O)(C(=O)OC)C1OC(C)=O)C32` (stereo not shown) [Compound 20] was tested. Which GI50 did it give?
A: Its GI50 is 4.52 µM.

same assay, conditions: Homo sapiens, mean over CNS Cancer panel; read-out: GI50 Mean

Q: For `CCC12C=CCN3CCC4(c5cc(NC(=O)CN6CCN(C(c7ccc(F)cc7)c7ccc(F)cc7)CC6)c(OC)cc5N(C)C4C(O)(C(=O)OC)C1OC(C)=O)C32` (stereo not shown) [Compound 20], which GI50 is on record?
A: The GI50 was 4.4 µM.

same assay, conditions: Homo sapiens, mean over Colon Cancer panel; read-out: GI50 Mean

Q: For `CCC12C=CCN3CCC4(c5cc(NC(=O)CN6CCN(C(c7ccc(F)cc7)c7ccc(F)cc7)CC6)c(OC)cc5N(C)C4C(O)(C(=O)OC)C1OC(C)=O)C32` (stereo not shown) [Compound 20], which GI50 is on record?
A: The GI50 was 3.4 µM.

same assay, conditions: Homo sapiens, mean over Leukemia panel; read-out: GI50 Mean

Q: `CCC12C=CCN3CCC4(c5cc(NC(=O)CN6CCN(C(c7ccc(F)cc7)c7ccc(F)cc7)CC6)c(OC)cc5N(C)C4C(O)(C(=O)OC)C1OC(C)=O)C32` (stereo not shown) [Compound 20] was tested. Which GI50 did it give?
A: The GI50 was 2.38 µM.

same assay, conditions: Homo sapiens, mean over Melanoma panel; read-out: GI50 Mean

Q: How did the GI50 turn out when `CCC12C=CCN3CCC4(c5cc(NC(=O)CN6CCN(C(c7ccc(F)cc7)c7ccc(F)cc7)CC6)c(OC)cc5N(C)C4C(O)(C(=O)OC)C1OC(C)=O)C32` (stereo not shown) [Compound 20] was run?
A: Its GI50 is 5.6 µM.

same assay, conditions: Homo sapiens, mean over Non-small Cell Lung Cancer panel; read-out: GI50 Mean

Q: `CCC12C=CCN3CCC4(c5cc(NC(=O)CN6CCN(C(c7ccc(F)cc7)c7ccc(F)cc7)CC6)c(OC)cc5N(C)C4C(O)(C(=O)OC)C1OC(C)=O)C32` (stereo not shown) [Compound 20] was tested. Which GI50 did it give?
A: The GI50 was 15.7 µM.

same assay, conditions: Homo sapiens, mean over Ovarian Cancer panel; read-out: GI50 Mean

Q: `CCC12C=CCN3CCC4(c5cc(NC(=O)CN6CCN(C(c7ccc(F)cc7)c7ccc(F)cc7)CC6)c(OC)cc5N(C)C4C(O)(C(=O)OC)C1OC(C)=O)C32` (stereo not shown) [Compound 20] was tested. Which GI50 did it give?
A: Its GI50 is 5.3 µM.

same assay, conditions: Homo sapiens, mean over Prostate Cancer panel; read-out: GI50 Mean

Q: How did the GI50 turn out when `CCC12C=CCN3CCC4(c5cc(NC(=O)CN6CCN(C(c7ccc(F)cc7)c7ccc(F)cc7)CC6)c(OC)cc5N(C)C4C(O)(C(=O)OC)C1OC(C)=O)C32` (stereo not shown) [Compound 20] was run?
A: The GI50 was 5.39 µM.

same assay, conditions: Homo sapiens, mean over Renal Cancer panel; read-out: GI50 Mean

Q: With `CCC12C=CCN3CCC4(c5cc(NC(=O)CN6CCN(C(c7ccc(F)cc7)c7ccc(F)cc7)CC6)c(OC)cc5N(C)C4C(O)(C(=O)OC)C1OC(C)=O)C32` (stereo not shown) [Compound 20] as the compound, how does the GI50 read?
A: Its GI50 is 5.23 µM.

system: HCT-116; assay: NCI60 five-dose screen, Colon Cancer; assay type: cell-based; conditions: Homo sapiens; HCT-116, Colon Cancer; five-dose screen; read-out: GI50

Q: For `CCC12C=CCN3CCC4(c5cc(NC(=O)CN6CCN(C(c7ccc(F)cc7)c7ccc(F)cc7)CC6)c(OC)cc5N(C)C4C(O)(C(=O)OC)C1OC(C)=O)C32` (stereo not shown) [Compound 20], which GI50 is on record?
A: The GI50 was 3.09 µM.

system: 786–0; assay: NCI60 five-dose screen, Renal Cancer; assay type: cell-based; conditions: Homo sapiens; 786–0, Renal Cancer; five-dose screen; read-out: GI50

Q: `CCC12C=CCN3CCC4(c5cc(NC(=O)CN6CCN(C(c7ccc(F)cc7)c7ccc(F)cc7)CC6)c(OC)cc5N(C)C4C(O)(C(=O)OC)C1OC(C)=O)C32` (stereo not shown) [Compound 20] was tested. Which GI50 did it give?
A: Its GI50 is 7.76 µM.

system: A498; assay: NCI60 five-dose screen, Renal Cancer; assay type: cell-based; conditions: Homo sapiens; A498, Renal Cancer; five-dose screen; read-out: GI50

Q: How did the GI50 turn out when `CCC12C=CCN3CCC4(c5cc(NC(=O)CN6CCN(C(c7ccc(F)cc7)c7ccc(F)cc7)CC6)c(OC)cc5N(C)C4C(O)(C(=O)OC)C1OC(C)=O)C32` (stereo not shown) [Compound 20] was run?
A: The GI50 was 5.62 µM.

system: COLO 205; assay: NCI60 five-dose screen, Colon Cancer; assay type: cell-based; conditions: Homo sapiens; COLO 205, Colon Cancer; five-dose screen; read-out: GI50

Q: For `CCC12C=CCN3CCC4(c5cc(NC(=O)CN6CCN(C(c7ccc(F)cc7)c7ccc(F)cc7)CC6)c(OC)cc5N(C)C4C(O)(C(=O)OC)C1OC(C)=O)C32` (stereo not shown) [Compound 20], which GI50 is on record?
A: Its GI50 is 2.45 µM.
